Data as given in ChEMBL document CHEMBL4219196, “Next-generation small molecule therapies for heart failure: 2015 and beyond” (2018).

Legend:
Type in all cases: functional
Homo sapiens [1] = assay: Reduction of cardiovascular events in patient with coronary artery disease and left ventricular systolic dysfunction assessed as relative risk reduction at 7.5 mg, po bid; parameters: scale not given: the % may be the effect or the level left
Homo sapiens [2] = assay: Reduction of cardiovascular events in patient with acute MI and coronary revascularization assessed as reduction in death at 7.5 mg, po bid; parameters: scale not given: the % may be the effect or the level left
Homo sapiens [3] = assay: Reduction of cardiovascular events in patient with acute MI and coronary revascularization assessed as reduction in heart rate at 7.5 mg, po bid
Homo sapiens [4] = assay: Reduction of cardiovascular events in patient with severe chronic heart failure and left ventricular systolic dysfunction assessed as relative risk reduction at 7.5 mg, po bid for 14 days; parameters: scale not given: the % may be the effect or the level left
Homo sapiens [5] = assay: Reduction of cardiovascular events in patient with severe chronic heart failure assessed as reduction in death at 7.5 mg, po bid for 14 days; parameters: scale not given: the % may be the effect or the level left
Homo sapiens [6] = assay: Reduction of cardiovascular events in patient with severe chronic heart failure assessed as reduction in heart rate at 7.5 mg, po bid for 14 days

For COc1cc2c(cc1OC)CC(=O)N(CCCN(C)C[C@H]1Cc3cc(OC)c(OC)cc31)CC2 [IVABRADINE], the Activity (Homo sapiens [1]) was “<=24%”, the Activity (Homo sapiens [2]) was 31% and the Activity (Homo sapiens [3]) was 12 bpm. It also gave an Activity (Homo sapiens [4]) of 18%, an Activity (Homo sapiens [5]) of 26% and an Activity (Homo sapiens [6]) of 15 bpm.
